Assay results published in patent US6737383B1, “Herbicidal oxadiazolidines” (priority 1999, dated 2004).

Key:
[1] = tested on: blackgrass; test: Test B pre/postemergence blackgrass; format: in vivo, Alopecurus myosuroides
In short: (§1)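 Response is a visual 0-to-10 score relative to untreated plants, where 0 means no effect and 10 means complete control, taken twelve to sixteen days after application. Treatments went onto soil at planting and onto foliage of 1- to 4-leaf plants, using a surfactant-containing non-phytotoxic solvent.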

[2] = tested on: surinam grass; test: Test B pre/postemergence surinam grass; format: in vivo, Brachiaria decumbens
In short: as §1

[3] = tested on: cocklebur; test: Test B pre/postemergence cocklebur; format: in vivo, Xanthium strumarium
In short: as §1

[4] = tested on: crabgrass; test: Test B pre/postemergence crabgrass; format: in vivo, Digitaria sanguinalis
In short: as §1

[5] = tested on: giant foxtail; test: Test B pre/postemergence giant foxtail; format: in vivo, Setaria faberii
In short: as §1

[6] = tested on: morningglory; test: Test B pre/postemergence morningglory; format: in vivo, Ipomoea hederacea
In short: as §1

[7] = tested on: pigweed; test: Test B pre/postemergence pigweed; format: in vivo, Amaranthus retroflexus
In short: as §1

[8] = tested on: sugar beet; test: Test B pre/postemergence sugar beet; format: in vivo, Beta vulgaris
In short: as §1

[9] = tested on: velvetleaf; test: Test B pre/postemergence velvetleaf; format: in vivo, Abutilon theophrasti
In short: as §1

[10] = tested on: wheat; test: Test B pre/postemergence wheat; format: in vivo, Triticum aestivum
In short: as §1

[11] = tested on: wild oat; test: Test B pre/postemergence wild oat; format: in vivo, Avena fatua
In short: as §1

[12] = tested on: purple nutsedge; test: Test B pre/postemergence purple nutsedge; format: in vivo, Cyperus rotundus
In short: as §1

[13] = tested on: rice; test: Test B flood test rice; format: in vivo, Oryza sativa
In short: (§2)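 Read-out is a visual response score from 0 (no effect) to 10 (complete control), assigned by comparison with untreated controls. Treatment was applied at the 2-leaf stage, and plants stayed in the greenhouse for twelve to sixteen days before scoring.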

[14] = tested on: duck salad; test: Test B flood test duck salad; format: in vivo, Heteranthera limosa
In short: as §2

[15] = tested on: bamyardgrass; test: Test B flood test barnyardgrass; format: in vivo, Echinochloa crus-galli
In short: as §2

[16] = Postemergence, Rate 62 g/ha, scale 0 to 10, 0 is no effect, 10 is complete control
[17] = Postemergence, Rate 125 g/ha, scale of 0 to 10 where 0 is no effect and 10 is complete control
[18] = Postemergence, Rate 250 g/ha, scale of 0 to 10, 0 is no effect, 10 is complete control
[19] = Postemergence, Rate 500 g/ha, scale of 0 to 10 where 0 is no effect and 10 is complete control
[20] = Preemergence, Rate 62 g/ha, scale of 0 to 10 where 0 is no effect and 10 is complete control
[21] = Preemergence, Rate 125 g/ha, scale of 0 to 10 where 0 is no effect and 10 is complete control
[22] = Preemergence, Rate 250 g/ha, scale 0 to 10 (0 no effect, 10 complete control)
[23] = Preemergence, Rate 500 g/ha, scale of 0 to 10 where 0 is no effect and 10 is complete control
[24] = Rate 62 g/ha, flood test species, Pre-emergence, visual evaluation after twelve to sixteen days
[25] = Rate 125 g/ha, under heading Pre-emergence, flood test species, visual evaluation after twelve to sixteen days
[26] = Rate 250 g/ha, Pre-emergence (flood test species), scale 0 to 10, 0 is no effect, 10 is complete control
[27] = Rate 500 g/ha, Pre-emergence section of Table B, 0 to 10 scale (0 no effect, 10 complete control)

CC(C)N(C(=O)n1oc(=O)n(CCC(=O)N(C)C)c1=O)c1ccc(F)cc1 [Compound 638]
Plant response rating, Blackgrass [1, 16]: 0 | Plant response rating, Blackgrass [1, 17]: 4 | Blackgrass plant response rating [1, 18]: 6 | Plant response rating, Blackgrass [1, 19]: 7 | Blackgrass plant response rating [1, 20]: 4 | Blackgrass plant response rating [1, 21]: 5 | Plant response rating, Blackgrass [1, 22]: 9 | Plant response rating, Blackgrass [1, 23]: 9 | Plant response rating, B. signalgrass [2, 16]: 0 | Plant response rating, B. signalgrass [2, 17]: 4 | B. signalgrass plant response rating [2, 18]: 6 | Plant response rating, B. signalgrass [2, 19]: 6 | B. signalgrass plant response rating [2, 20]: 4 | B. signalgrass plant response rating [2, 21]: 7 | Plant response rating, B. signalgrass [2, 22]: 8 | Plant response rating, B. signalgrass [2, 23]: 8 | Plant response rating, Cocklebur [3, 16]: 0 | Plant response rating, Cocklebur [3, 17]: 0 | Cocklebur plant response rating [3, 18]: 2 | Plant response rating, Cocklebur [3, 19]: 4 | Cocklebur plant response rating [3, 20]: 0 | Cocklebur plant response rating [3, 21]: 0 | Plant response rating, Cocklebur [3, 22]: 4 | Plant response rating, Cocklebur [3, 23]: 9 | Plant response rating, Crabgrass [4, 16]: 2 | Plant response rating, Crabgrass [4, 17]: 5 | Crabgrass plant response rating [4, 18]: 8 | Plant response rating, Crabgrass [4, 19]: 9 | Crabgrass plant response rating [4, 20]: 9 | Crabgrass plant response rating [4, 21]: 9 | Plant response rating, Crabgrass [4, 22]: 9 | Plant response rating, Crabgrass [4, 23]: 10 | Plant response rating, Giant foxtail [5, 16]: 5 | Plant response rating, Giant foxtail [5, 17]: 6 | Giant foxtail plant response rating [5, 18]: 8 | Plant response rating, Giant foxtail [5, 19]: 8 | Giant foxtail plant response rating [5, 20]: 10 | Giant foxtail plant response rating [5, 21]: 10 | Plant response rating, Giant foxtail [5, 22]: 10 | Plant response rating, Giant foxtail [5, 23]: 10 | Plant response rating, Morningglory [6, 16]: 0 | Plant response rating, Morningglory [6, 17]: 2 | Morningglory plant response rating [6, 18]: 3 | Plant response rating, Morningglory [6, 19]: 7 | Morningglory plant response rating [6, 20]: 0 | Morningglory plant response rating [6, 21]: 0 | Plant response rating, Morningglory [6, 22]: 2 | Plant response rating, Morningglory [6, 23]: 7 | Plant response rating, Redroot pigweed [7, 16]: 0 | Plant response rating, Redroot pigweed [7, 17]: 0 | Redroot pigweed plant response rating [7, 18]: 0 | Redroot pigweed plant response rating [7, 20]: 7 | Redroot pigweed plant response rating [7, 21]: 10 | Plant response rating, Redroot pigweed [7, 22]: 10 | Plant response rating, Redroot pigweed [7, 23]: 10 | Plant response rating, Sugarbeets [8, 16]: 0 | Plant response rating, Sugarbeets [8, 17]: 0 | Sugarbeets plant response rating [8, 18]: 0 | Sugarbeets plant response rating [8, 20]: 0 | Sugarbeets plant response rating [8, 21]: 6 | Plant response rating, Sugarbeets [8, 22]: 6 | Plant response rating, Sugarbeets [8, 23]: 10 | Plant response rating, Velvetleaf [9, 16]: 0 | Plant response rating, Velvetleaf [9, 17]: 2 | Velvetleaf plant response rating [9, 18]: 4 | Velvetleaf plant response rating [9, 20]: 3 | Velvetleaf plant response rating [9, 21]: 5 | Plant response rating, Velvetleaf [9, 22]: 5 | Plant response rating, Velvetleaf [9, 23]: 10 | Plant response rating, Wheat [10, 16]: 0 | Plant response rating, Wheat [10, 17]: 0 | Wheat plant response rating [10, 18]: 3 | Wheat plant response rating [10, 20]: 0 | Wheat plant response rating [10, 21]: 0 | Plant response rating, Wheat [10, 22]: 3 | Plant response rating, Wheat [10, 23]: 7 | Plant response rating, Wild oats [11, 16]: 1 | Plant response rating, Wild oats [11, 17]: 1 | Wild oats plant response rating [11, 18]: 1 | Wild oats plant response rating [11, 20]: 4 | Wild oats plant response rating [11, 21]: 4 | Plant response rating, Wild oats [11, 22]: 10 | Plant response rating, Wild oats [11, 23]: 10 | Plant response rating, Nutsedge [12, 16]: 0 | Plant response rating, Nutsedge [12, 17]: 5 | Plant response rating, Nutsedge [12, 19]: 7 | Nutsedge plant response rating [12, 20]: 0 | Nutsedge plant response rating [12, 21]: 5 | Plant response rating, Nutsedge [12, 22]: 5 | Plant response rating, Nutsedge [12, 23]: 8 | Plant response rating, Rice (0 to 10 scale, 0 is no effect, 10 is complete control) [13, 24]: 0 | Rice plant response rating (0 to 10 scale, 0 is no effect, 10 is complete control) [13, 25]: 0 | Rice plant response rating [13, 26]: 0 | Rice plant response rating [13, 27]: 0 | Plant response rating, Ducksalad (0 to 10 scale, 0 is no effect, 10 is complete control) [14, 24]: 0 | Ducksalad plant response rating (0 to 10 scale, 0 is no effect, 10 is complete control) [14, 25]: 0 | Ducksalad plant response rating [14, 26]: 0 | Ducksalad plant response rating [14, 27]: 0 | Plant response rating, Barnyardgrass (0 to 10 scale, 0 is no effect, 10 is complete control) [15, 24]: 0 | Barnyardgrass plant response rating (0 to 10 scale, 0 is no effect, 10 is complete control) [15, 25]: 0 | Barnyardgrass plant response rating [15, 26]: 0 | Barnyardgrass plant response rating [15, 27]: 0
